Assay results: ChEMBL document CHEMBL1201862, “PubChem BioAssay data set” (2004)
Calls of active or inactive are those of the source.

Assays:
[1] = biological target: T1, Carboxy-terminal domain RNA polymerase II polypeptide A small phosphatase 1 (Homo sapiens, UniProt Q9GZU7); assay: inhibitors of CTDSP1, concentration-response testing, biochemical assay, absorbance-based, actives from ultra-high-throughput screening (AID 540297); assay type: functional
T1 sequence (Q9GZU7 whole entry): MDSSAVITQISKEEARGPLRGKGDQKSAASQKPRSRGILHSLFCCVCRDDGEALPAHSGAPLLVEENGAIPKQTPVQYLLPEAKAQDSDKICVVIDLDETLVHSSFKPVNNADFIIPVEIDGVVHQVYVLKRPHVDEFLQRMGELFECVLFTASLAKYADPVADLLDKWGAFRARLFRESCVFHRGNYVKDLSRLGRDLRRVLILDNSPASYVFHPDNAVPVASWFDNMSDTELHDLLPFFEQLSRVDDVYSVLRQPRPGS

[2] = biological target: T2, Low molecular weight phosphotyrosine protein phosphatase (Homo sapiens, UniProt P24666); assay type: functional; conditions: read-out: IC50_Mean;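 also: Dose-response confirmation assay measuring inhibition of LMPTP enzyme activity by fluorescence intensity read-out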
T2 sequence (P24666 whole entry): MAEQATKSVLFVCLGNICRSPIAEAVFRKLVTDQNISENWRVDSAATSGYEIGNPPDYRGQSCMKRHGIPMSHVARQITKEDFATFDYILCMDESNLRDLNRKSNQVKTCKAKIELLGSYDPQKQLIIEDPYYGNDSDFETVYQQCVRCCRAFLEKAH

[3] = biological target: Glucose-6-phosphate 1-dehydrogenase (Homo sapiens, UniProt P11413); assay: human G6PD enzyme inhibitors, dose response, selectivity assay for P. falciparum G6PD inhibitor project, biochemical, fluorescence (AID 504792); assay type: functional
H9c2 = assay: cells; assay type: functional, cell-based; conditions: Rattus norvegicus, H9c2, Myocardium;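 also: confirmatory concentration-response retest of ultra-high-throughput screening hits for modulation of myocardial damage; cell death induced by hydrogen peroxide oxidative stress; compound pretreatment for 60 min then peroxide exposure for 2 h; potency is for protecting the cells against peroxide damage rather than for killing them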
Nonstructural protein 1 = Nonstructural protein 1 (Influenza A virus, UniProt Q194T2); assay type: functional, Influenza A virus (A/California/07/2009(H1N1))
[4] = biological target: T3, Tyrosyl-DNA phosphodiesterase 2 (Homo sapiens, UniProt O95551); assay: human TDP2 enzyme inhibitors, dose response, biochemical, epi absorbance, IC50 (AID 743297)
T3 sequence (O95551 whole entry): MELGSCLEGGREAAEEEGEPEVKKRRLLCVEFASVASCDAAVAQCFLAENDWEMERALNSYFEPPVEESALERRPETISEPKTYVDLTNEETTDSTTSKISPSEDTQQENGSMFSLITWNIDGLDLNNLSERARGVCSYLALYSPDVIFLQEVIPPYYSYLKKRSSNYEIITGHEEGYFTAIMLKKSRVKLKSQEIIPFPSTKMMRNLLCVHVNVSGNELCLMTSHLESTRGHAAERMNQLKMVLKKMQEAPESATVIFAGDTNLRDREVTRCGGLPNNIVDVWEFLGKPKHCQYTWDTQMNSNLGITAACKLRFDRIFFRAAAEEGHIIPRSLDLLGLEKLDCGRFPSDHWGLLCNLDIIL

Large T antigen = Large T antigen (Simian virus 40, UniProt P03070); assay type: functional, Betapolyomavirus macacae;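 also: Confirmatory-stage PubChem screen for compounds that inhibit SV40 T antigen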
[5] = Luminescence Cell-Based Dose Response HTS to Identify Inhibitors of 5'UTR Stem-Loop Driven Prion Protein mRNA Translation in H4 Neuroglioblastoma Cells. [Related pubchem assays: 1827 (Project Summary), 1813 (Primary HTS)]; assay type: functional
[6] = inhibitors of SNCA 5'UTR-driven reporter translation, confirmation, H4 neuroglioma cells, luminescence (AID 1988); assay type: functional, cell-based
[7] = inhibitors of firefly luciferase expression or activity, dose response, H4 neuroglioma cells, luminescence (AID 1990); assay type: functional, cell-based
[8] = A549 cell cytotoxicity, dose response, cytotoxicity control, plate reader, cherry-pick, antagonist series (AID 743412); assay type: functional, cell-based
[9] = LGR2 antagonists, dose response, cell-based, HEK293, CRE-luciferase reporter, cherry pick, set 2 (AID 743343); assay type: functional;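 also: transfected cells were stimulated with diluted bursicon conditioned medium after compound addition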
[10] = HEK293 cell cytotoxicity, dose response, cytotoxicity control, plate reader, cherry-picked samples (AID 743446); assay type: functional, cell-based
[11] = biological target: T4, Corticotropin-releasing factor receptor 2/Corticotropin-releasing factor-binding protein (Homo sapiens, UniProt P24387+Q13324); assay: Dose Response confirmation of uHTS hits for small molecule antagonists of the CRF-binding protein and CRF-R2 receptor complex.; assay type: functional; conditions: read-out: IC50_Mean
T4 sequence (Q13324 whole entry): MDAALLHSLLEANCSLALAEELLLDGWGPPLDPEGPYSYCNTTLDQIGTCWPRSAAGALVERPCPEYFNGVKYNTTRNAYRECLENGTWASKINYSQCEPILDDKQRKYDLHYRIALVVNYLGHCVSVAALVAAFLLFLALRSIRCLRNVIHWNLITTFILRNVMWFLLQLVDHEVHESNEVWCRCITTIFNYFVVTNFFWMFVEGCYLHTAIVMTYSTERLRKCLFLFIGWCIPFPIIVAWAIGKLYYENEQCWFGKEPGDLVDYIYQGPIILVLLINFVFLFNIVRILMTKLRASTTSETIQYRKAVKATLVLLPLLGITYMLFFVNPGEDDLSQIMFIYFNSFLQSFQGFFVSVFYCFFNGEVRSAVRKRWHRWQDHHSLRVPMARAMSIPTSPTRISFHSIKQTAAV
T4 sequence (P24387 whole entry): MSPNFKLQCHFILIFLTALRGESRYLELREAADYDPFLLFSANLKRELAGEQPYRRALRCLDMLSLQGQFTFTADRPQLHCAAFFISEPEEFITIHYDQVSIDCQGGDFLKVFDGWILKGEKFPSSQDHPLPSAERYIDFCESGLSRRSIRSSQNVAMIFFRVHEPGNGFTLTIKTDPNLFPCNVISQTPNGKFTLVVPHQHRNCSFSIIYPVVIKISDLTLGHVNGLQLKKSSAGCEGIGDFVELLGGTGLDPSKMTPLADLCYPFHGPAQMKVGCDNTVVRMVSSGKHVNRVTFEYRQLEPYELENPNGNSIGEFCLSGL

[12] = biological target: T4, Corticotropin-releasing factor receptor 2/Corticotropin-releasing factor-binding protein; assay: activators of CRF receptor 2 with binding protein – uHTS hits, confirmation (AID 602473); assay type: functional; conditions: read-out: EC50_Mean
SN12K1 = assay: cells; assay type: functional; conditions: Homo sapiens
Cytochrome P450 2D6 = Cytochrome P450 2D6 (Homo sapiens, UniProt P10635);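 also: CYP2D6 member of a cytochrome P450 panel assay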
P388 = assay: cells; assay type: functional; conditions: Mus musculus
P388/ADR = assay: cells; assay type: functional; conditions: Mus musculus
[13] = intracellular Trypanosoma cruzi inhibitors in host cells – cell-based, plate reader, cherry-pick samples, set 3, dose response (AID 651818); assay type: functional;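 also: compounds incubated with infected cells for about four days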
[14] = MC4R antagonists, dose response, counter-screen for LGR2 antagonist project, cell-based, plate reader, cherry pick (AID 743444); assay type: functional;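 also: transfected HEK 293 cells stimulated with alpha-MSH peptide; potency of inhibitors of the alpha-MSH evoked signal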
[15] = HepG2 cell cytotoxicity, dose response, cytotoxicity control, plate reader, cherry-pick, antagonist series (AID 743416); assay type: functional, cell-based
[16] = Luminescent dose response cell-based high throughput screening assay for inhibitors of the Janus kinase 2 mutant JAK2V617F. [Related pubchem assays: 1446 (Primary screen.), 1521 (Confirmation assay.), 1486 (Counter screen.)]; assay type: functional

Glucose-6-phosphate 1-dehydrogenase, sequence (P11413 whole entry): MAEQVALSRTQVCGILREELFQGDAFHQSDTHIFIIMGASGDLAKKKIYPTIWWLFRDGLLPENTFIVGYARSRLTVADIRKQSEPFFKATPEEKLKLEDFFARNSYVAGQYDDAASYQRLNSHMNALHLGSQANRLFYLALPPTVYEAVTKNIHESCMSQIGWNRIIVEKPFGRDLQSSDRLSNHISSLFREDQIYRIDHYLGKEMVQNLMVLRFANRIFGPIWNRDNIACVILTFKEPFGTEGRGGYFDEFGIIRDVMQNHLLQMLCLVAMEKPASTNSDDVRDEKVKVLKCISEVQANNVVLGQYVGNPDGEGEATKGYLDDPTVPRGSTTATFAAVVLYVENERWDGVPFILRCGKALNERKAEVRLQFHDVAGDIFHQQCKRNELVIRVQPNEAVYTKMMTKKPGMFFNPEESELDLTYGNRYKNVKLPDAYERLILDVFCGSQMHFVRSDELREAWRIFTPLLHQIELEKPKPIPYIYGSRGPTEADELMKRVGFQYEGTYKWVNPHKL
Nonstructural protein 1, sequence (Q194T2 whole entry): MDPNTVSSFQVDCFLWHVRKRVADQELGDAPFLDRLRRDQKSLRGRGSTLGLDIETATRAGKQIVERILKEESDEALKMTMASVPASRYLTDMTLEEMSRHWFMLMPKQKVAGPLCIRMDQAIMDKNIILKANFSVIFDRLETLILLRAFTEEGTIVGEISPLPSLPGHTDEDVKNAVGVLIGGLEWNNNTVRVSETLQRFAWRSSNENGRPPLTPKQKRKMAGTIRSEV
Large T antigen, sequence (P03070 whole entry): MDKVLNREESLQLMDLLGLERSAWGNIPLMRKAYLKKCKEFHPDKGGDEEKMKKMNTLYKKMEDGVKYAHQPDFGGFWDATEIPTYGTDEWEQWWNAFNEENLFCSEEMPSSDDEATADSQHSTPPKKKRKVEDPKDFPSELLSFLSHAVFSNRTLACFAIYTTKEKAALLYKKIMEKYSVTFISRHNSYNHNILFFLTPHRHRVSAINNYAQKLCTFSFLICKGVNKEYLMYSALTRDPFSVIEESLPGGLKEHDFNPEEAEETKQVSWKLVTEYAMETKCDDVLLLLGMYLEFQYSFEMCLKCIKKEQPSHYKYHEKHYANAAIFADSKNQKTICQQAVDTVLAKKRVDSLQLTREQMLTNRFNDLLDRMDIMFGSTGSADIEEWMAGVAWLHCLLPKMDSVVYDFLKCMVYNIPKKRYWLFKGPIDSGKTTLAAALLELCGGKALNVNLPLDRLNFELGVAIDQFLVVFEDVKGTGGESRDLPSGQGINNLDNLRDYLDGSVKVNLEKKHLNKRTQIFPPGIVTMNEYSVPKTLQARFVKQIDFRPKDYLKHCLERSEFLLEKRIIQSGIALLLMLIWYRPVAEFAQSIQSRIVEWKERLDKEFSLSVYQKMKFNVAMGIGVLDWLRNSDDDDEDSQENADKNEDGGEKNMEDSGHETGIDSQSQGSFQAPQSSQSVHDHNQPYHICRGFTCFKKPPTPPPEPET
Cytochrome P450 2D6, sequence (P10635 whole entry): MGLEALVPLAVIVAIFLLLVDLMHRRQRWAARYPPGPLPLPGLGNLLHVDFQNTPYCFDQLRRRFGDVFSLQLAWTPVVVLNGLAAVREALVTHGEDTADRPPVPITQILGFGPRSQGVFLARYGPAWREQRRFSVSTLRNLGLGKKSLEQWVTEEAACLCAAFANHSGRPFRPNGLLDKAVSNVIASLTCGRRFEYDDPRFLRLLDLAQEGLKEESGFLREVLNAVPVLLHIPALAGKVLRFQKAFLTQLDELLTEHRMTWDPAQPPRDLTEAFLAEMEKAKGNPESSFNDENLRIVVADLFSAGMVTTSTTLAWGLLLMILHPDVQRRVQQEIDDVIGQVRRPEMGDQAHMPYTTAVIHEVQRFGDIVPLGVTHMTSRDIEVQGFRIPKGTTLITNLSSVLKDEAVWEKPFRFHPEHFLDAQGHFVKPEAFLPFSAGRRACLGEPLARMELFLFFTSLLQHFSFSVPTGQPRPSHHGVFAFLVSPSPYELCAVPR

With `O=C(Nc1ccc(S(=O)(=O)Nc2nccs2)cc1)c1nn(-c2ccc(F)cc2)ccc1=O` the IC50 [1] was 4.55 µM (active) and the IC50 [2] was 22.3 µM (inactive).
With `O=C(Nc1ccccn1)c1sc2cc([N+](=O)[O-])ccc2c1Cl` the IC50 [3] was > 80 µM (inactive).
In the case of `O=C(Nc1nc(-c2ccccn2)cs1)c1cc(S(=O)(=O)N2CCOCC2)ccc1F`, the IC50 (H9c2) is reported as 39.8 µM (inactive) and the IC50 (Nonstructural protein 1) is reported as 7.21 µM (active).
For `Cc1ccccc1OCC(=O)NCC(=O)OCC(=O)c1ccc([N+](=O)[O-])cc1`, the IC50 [3] was > 80 µM (inactive).
For `CC1=NN(c2ccc(C)c(C)c2)C(=O)/C1=C/c1ccc2c(c1)n(C)c(=O)n2C`, the IC50 [4] was > 128 µM (inactive).
With `Nc1ccc2[nH]c(CCCCCCCCc3nc4cc(N)ccc4[nH]3)nc2c1` the IC50 (Large T antigen) was 18.7 µM (active) and the IC50 [2] was 11.4 µM (active).
In the case of `CC1CN(c2ccccc2)NC1=O` (configuration not stated), the IC50 [3] is reported as 41.2 µM (inactive).
With `O=C(CSc1n[nH]c(-c2ccccn2)n1)Nc1ccc(F)cc1` the EC50 [5] was 11.5 µM (active), the EC50 [6] was > 120 µM (not active) and the EC50 [7] was 12.6 µM (active). For the same compound, the IC50 (Nonstructural protein 1) was 5.65 µM (active).
In the case of `COc1ccc(-c2cc(-c3nnc(COC(=O)C4CC4)o3)c3ccccc3n2)cc1OC`, the AC50 [8] is reported as > 52 µM (inactive), the AC50 [9] is reported as 43.2 µM (active) and the IC50 (H9c2) is reported as > 79 µM (inactive). For the same compound, the AC50 [10] was > 52 µM (inactive).
With `Cc1ccccc1N/C(SCc1cccc(Br)c1)=C(/C#N)C(N)=O` the IC50 [3] was > 80 µM (inactive).
With `CC(=O)Nc1cc2c(cc1[N+](=O)[O-])-c1ccccc1C2O` (configuration not stated) the IC50 [3] was > 80 µM (inactive).
In the case of `Cc1cc(N2CCN(C(=O)Nc3ccccc3C#N)CC2)c2ccccc2n1`, the IC50 [2] is reported as 21.3 µM (inactive).
With `COC1(OC)C=CC(=O)C=C1NC(=O)c1ccccc1OC(C)=O` the IC50 [11] was > 47.1 µM (inactive), the IC50 [3] was > 80 µM (inactive) and the EC50 [12] was > 53 µM (inactive).
In the case of `CCN(CC)CC[n+]1ccc2c(C)c3[nH]c4ccc(O)cc4c3c(C)c2c1`, the GI50 (SN12K1) is reported as 0.948 µM (active), the AC50 (Cytochrome P450 2D6) is reported as 6.31 µM (inconclusive) and the GI50 (P388) is reported as 0.012 µM (active). For the same compound, the GI50 (P388/ADR) was 2.21 µM (inactive).
With `CC1=C2C(O)C(C(C)C(=O)NC(C)C)CCC2(C)C=CC1=O` (configuration not stated) the GI50 (SN12K1) was > 100 µM (inactive), the GI50 (P388) was > 100 µM (inactive) and the GI50 (P388/ADR) was > 100 µM (inactive).
For `CN(C)CC1CCCC(CN(C)C)C1=O` (configuration not stated), the GI50 (SN12K1) was 16.3 µM (inactive), the GI50 (P388) was 0.0614 µM (active) and the GI50 (P388/ADR) was 0.0164 µM (active).
For `Cc1ccc(N2C(=O)C3CSCN3C2=O)cc1` (configuration not stated), the GI50 (SN12K1) was > 100 µM (inactive), the GI50 (P388) was > 100 µM (inactive) and the GI50 (P388/ADR) was > 100 µM (inactive).
With `C[C@H]1CN([C@@H](C)CO)C(=O)Cc2cc(NC(=O)Nc3ccc4c(c3)OCO4)ccc2O[C@H]1CN(C)Cc1ccc(C(F)(F)F)cc1` the AC50 [13] was 7.92 µM (active).
For `C[C@H](CO)N1C[C@H](C)[C@H](CN(C)Cc2ccc(-c3ccccc3)cc2)Oc2c(NC(=O)Nc3ccc(C(F)(F)F)cc3)cccc2C1=O`, the AC50 [13] was 6 µM (active).
With `C[C@@H]1CN([C@H](C)CO)C(=O)c2cccc(NC(=O)Nc3ccc4c(c3)OCO4)c2O[C@@H]1CN(C)Cc1ccc(C(=O)Nc2ccccc2N)cc1` the AC50 [13] was 2.84 µM (active).
With `Cc1noc(C)c1S(=O)(=O)Nc1ccc2c(c1)CC(=O)N([C@H](C)CO)C[C@@H](C)[C@H](CN(C)Cc1ccc(Oc3ccccc3)cc1)O2` the AC50 [13] was 6.34 µM (active).
For `C[C@H](CO)N1C[C@H](C)[C@H](CN(C)Cc2ccncc2)Oc2ncc(C#CCC3CCCCC3)cc2C1=O`, the AC50 [8] was 16.1 µM (active), the AC50 [9] was 30 µM (active) and the AC50 [14] was 63.3 µM (active). The AC50 [15] was 15.3 µM (active).
In the case of `Cc1c(N/N=C2\C(=O)NC(=O)N(c3ccc(Br)cc3)C2=O)c(=O)n(-c2ccccc2)n1C`, the IC50 (Nonstructural protein 1) is reported as 6.25 µM (active).
For `Oc1ccc(/C=N/N2CCN(C3c4ccccc4-c4ccccc43)CC2)cc1O`, the IC50 [16] was 3.62 µM (active).
In the case of `CC(=O)OC1CCC2(C)C3CCC4(C)C(c5ccc(=O)oc5)CC5OC54C3CCC2(O)C1` (configuration not stated), the GI50 (SN12K1) is reported as 0.948 µM (active), the GI50 (P388) is reported as > 200 µM (inactive) and the GI50 (P388/ADR) is reported as > 200 µM (inactive).
With `CCOC(=O)Nc1ccc2c(c1)N(C(=O)CCN(CC)CC)c1ccccc1S2` [ETHACIZINE] the GI50 (SN12K1) was 33.6 µM (inactive) and the GI50 (P388) was 9.46 µM (inactive).
